According to patent US20250275538A1, “COMPOSITIONS CONTAINING L-CARNITINE AND SEAWEED EXTRACT FOR MITIGATING ABIOTIC STRESS IN PLANTS” (ACADIAN SEAPLANTS LIMITED, priority 2022, published 2025):

Columns and labels:
Type in all cases: in vivo
[1] = tested on: winter wheat (cv. Marius); test: Wheat drought stress greenhouse trial (seed treatment); details: ANE alone 1 ml/kg, CAR alone 0.3 g/kg; for plant vigour, Mean: 0-10 scale
Procedure: Winter wheat seed (cv. Marius) was treated at a total application volume of 10 ml/kg with water (unstressed control and stressed control treatment groups), or an aqueous solution of Ascophyllum nodosum extract (ANE) at 1 ml/kg, or an aqueous solution of L-carnitine hydrochloride (CAR) at 0.3 g/kg, or combinations of Ascophyllum nodosum extract at 1 ml/kg with either 0.1, 0.2, 0.3, or 0.4 g/kg L-carnitine hydrochloride. Treated wheat seed was sown in soil in pots with 10 biological replicates per treatment group in a randomized complete block design. Four days after full emergence, drought stress was imposed on all but the unstressed control treatment group through a 50% reduced irrigation regime relative to the full irrigation received by the unstressed control group.

[2] = tested on: winter wheat (cv. Marius); test: Wheat salinity stress greenhouse trial (seed treatment); details: ANE alone 1 ml/kg, CAR alone 0.3 g/kg
Procedure: Winter wheat seed (cv. Marius) was treated at a total application volume of 10 ml/kg with water (unstressed control and stressed control treatment groups), or an aqueous solution of Ascophyllum nodosum extract (ANE) at 1 ml/kg, or an aqueous solution of L-carnitine hydrochloride (CAR) at 0.3 g/kg, or combinations of Ascophyllum nodosum extract at 1 ml/kg with either 0.1, 0.2, 0.3, or 0.4 g/kg L-carnitine hydrochloride. Treated wheat seed was sown in pots containing soil with 10 biological replicates per treatment group in a randomized complete block design. Four days after full emergence, salinity stress was imposed on all but the unstressed control treatment group through irrigation with saline water (8 g/l NaCl) for the remainder of the trial. The unstressed control treatment group was irrigated with non-saline water.

soybean (cv. Mungo) = test: Soybean drought stress greenhouse trial (seed treatment); details: 51 days after sowing, ANE alone 1 ml/kg, CAR alone 0.3 g/kg
Procedure: Soybean seed (cv. Mungo) was treated at a total application volume of 10 ml/kg with water (unstressed control and stressed control treatment groups), or an aqueous solution of Ascophyllum nodosum extract (ANE) at 1 ml/kg, or an aqueous solution of L-carnitine hydrochloride (CAR) at 0.3 g/kg, or combinations of Ascophyllum nodosum extract at 1 ml/kg with either 0.1, 0.2, 0.3, or 0.4 g/kg L-carnitine hydrochloride. Treated soybean seed was sown in pots containing soil with 10 biological replicates per treatment group in a randomized complete block design. Four days after full emergence, drought stress was imposed on all but the unstressed control treatment group through a 50% reduced irrigation regime relative to the full irrigation received by the unstressed control group.

corn (cv. H140354) = test: Corn drought stress controlled environment room trial (seed treatment); details: 10 days after sowing
Procedure: Corn seed (cv. H140354) was treated at a total application volume of 10 ml/kg with water (unstressed control and stressed control treatment groups), or an aqueous solution of Ascophyllum nodosum extract (ANE) at 2 ml/kg, or an aqueous solution of L-carnitine hydrochloride (CAR) at 0.3 g/kg, or a combinations of Ascophyllum nodosum extract at 2 ml/kg and 0.3 g/kg L-carnitine hydrochloride. Treated corn seed was sown in field soil inside cell packs set in greenhouse trays with 16 biological replicates per treatment group in a randomized complete block design. Three days after seeding, drought stress was imposed on all but the unstressed control treatment group through a 75% reduced irrigation regime relative to the full irrigation received by the unstressed control group, and assessments were made ten days after seeding.

[3] = tested on: wheat (cultivar Skyfall, ref. SEED-0035); test: Wheat subject to cold stress (seed treatment), NPQt and synergy assessment; details: 10 days after sowing, ANE alone 0.36 g
Procedure: Seed Treatment solutions were prepared per Table 20:
0.1 mL of treatment solution was pipetted into a 500-mL glass beaker around the edges and 10 g of wheat seed (cultivar Skyfall, ref. SEED-0035) was added. The beaker was swirled by hand for 1 min to coat the seeds, which were then swirled intermittently until dry, if needed.
The trial was set up according to the following protocol: • 1. 32 8-0-6 cell packs were labelled with coloured stickers to denote five treatments with 4 cell packs for non-stress controls and 7 for the remaining 4 treatments. • 2. In a container 6 L of stored field soil and 600 mL water were mixed thoroughly. • 3. If soil was too dry, an additional 300 mL water, or an amount as appropriate, was added. • 4. […]
An estimate of non-photochemical quenching (NPQt), which is the amount of incoming light that is regulated away from photosynthetic processes in order to reduce damage to the plant was obtained using the MultispeQ (B-4003-AA) from PhotosynQ, according to manufaturer's directions. For the photosynthesis measuments a total of 12-14 plants per treatment were measured. […]
To supplement the observed evidence of efficacy, a synergy assessment was made. Synergy was calculated using two different methodologies, both of which find support in the literature: 1) Equation Ill from Colby, S. R. 1967. […]

[4] = tested on: Marula soybean (reference SEED-003); test: Soybean subject to salinity stress (seed treatment), NPQt, shoot weight and synergy assessment; details: 17 days after sowing, ANE alone 0.36 g
Procedure: To supplement the observed evidence of efficacy, a synergy assessment was made. Synergy was calculated using two different methodologies, both of which find support in the literature: 1) Equation Ill from Colby, S. R. 1967. Calculating synergistic and antagonistic responses of herbicide combinations. Weed Science 15:20-22. and 2) Equation 2 from Huang, Z., and K. A. Falco. 2021. Synergy assessment for plant growth by independent joint action theory. HortScience 56(5):623-626. doi: 10.21273/HORTSC115731-21. A one-sample, two-tailed t-test was used to assess the statistical significance of the difference between the observed and predicted means. The same Seed Treatments solutions (Table 20) and trial protocol were used as in Example 6, but seeds were planted at 1.5″. To coat seeds, 0.3 mL of treatment solution was pipetted into a 500-mL glass beaker around the edges and 30 g of soybean seed was added. Marula soybean seed (reference SEED-003) from Prograin was used, without any other treatment. An estimate of NPQt was obtained using the MultispeQ™ (B-4003-AA) from PhotosynQ, according to manufaturer's directions. For the photosynthesis measuments a total of 12-14 plants per treatment were measured. For Example 7, parametric analysis of variance (ANOVA) was done using the aov function in the ggpubr package, and multiple comparison testing was done with the Tukey test (alpha=0.1) using the TukeyHSD function in the stats package in R. Shoot weight was evaluated to assess whether the positive effects observed in NPQt was reflected in more robust plant grown. Seven cell packs per treatment were measured for shoot weight.

[5] = 50 days after sowing, drought stress (50% reduced irrigation)
[6] = compared to stressed control, 50 days after sowing, drought stress
[7] = drought stress (50% reduced irrigation)
[8] = compared to stressed control, drought stress
[9] = drought stress (75% reduced irrigation), ANE alone 2 ml/kg, CAR alone 0.3 g/kg
[10] = compared to stressed control, drought stress, ANE alone 2 ml/kg, CAR alone 0.3 g/kg
[11] = compared to stressed control, Carnitine alone 0.30 g

C[N+](C)(C)C[C@H](O)CC(=O)[O-].Cl [CAR, L-carnitine hydrochloride]
plant vigour, Mean ([1]; 21 days after sowing, drought stress (50% reduced irrigation), combinations as labelled): 7.60
plant vigour, Mean ([1]; 42 days after sowing, drought stress (50% reduced irrigation)): 8.35
foliar fresh weight, Mean [1, 5]: 9.94
root fresh weight, Mean [1, 5]: 3.66
plant vigour, Difference (%) ([1]; compared to stressed control, 21 days after sowing, drought stress): 7.0%
plant vigour, Difference (%) ([1]; compared to stressed control, 42 days after sowing, drought stress): 11.3%
foliar fresh weight, Difference (%) [1, 6]: 9.9%
root fresh weight, Difference (%) [1, 6]: 67.5%
plant height, Mean ([2]; 22 days after sowing, salinity stress (irrigation with 8 g/l NaCl)): 27.55
relative chlorophyll content (SPAD), Mean ([2]; 29 days after sowing, salinity stress (8 g/l NaCl)): 35.30
plant height, Mean ([2]; 35 days after sowing, salinity stress (8 g/l NaCl)): 37.39
plant vigour, Mean ([2]; 43 days after sowing, salinity stress (8 g/l NaCl)): 8.68
fresh foliar biomass, Mean ([2]; 50 days after sowing, salinity stress (8 g/l NaCl)): 10.6
plant height, Difference (%) ([2]; compared to stressed control, 22 days after sowing, salinity stress): 6.8%
relative chlorophyll content (SPAD), Difference (%) ([2]; compared to stressed control, 29 days after sowing, salinity stress): 17.1%
plant height, Difference (%) ([2]; compared to stressed control, 35 days after sowing, salinity stress): 17.2%
plant vigour, Difference (%) ([2]; compared to stressed control, 43 days after sowing, salinity stress): 9.9%
fresh foliar biomass, Difference (%) ([2]; compared to stressed control, 50 days after sowing, salinity stress): 29.3%
foliar dry weight, Mean (soybean (cv. Mungo); [7]): 12.64
foliar fresh weight, Mean (soybean (cv. Mungo); [7]): 49.1
plant vigour, Mean (soybean (cv. Mungo); [7]): 9.4
foliar dry weight, Difference (%) (soybean (cv. Mungo); [8]): 55.9%
foliar fresh weight, Difference (%) (soybean (cv. Mungo); [8]): 24.9%
plant vigour, Difference (%) (soybean (cv. Mungo); [8]): 23.7%
linear electron flow (LEF), Mean (corn (cv. H140354); [9]): 10.14
photosynthetic efficiency (photosystem II efficiency, Phi2), Mean (corn (cv. H140354); [9]): 0.32
root length, Mean (corn (cv. H140354); [9]): 263.3
linear electron flow (LEF), Difference (%) (corn (cv. H140354); [10]): −4.3%
non-photochemical quenching (NPQt), Difference (%) (corn (cv. H140354); [10]): −10.0%
photosynthetic efficiency (Phi2), Difference (%) (corn (cv. H140354); [10]): 5.7%
root length, Difference (%) (corn (cv. H140354); [10]): 16.4%
non-photochemical quenching (NPQt), Mean (corn (cv. H140354); indicator of plant stress level, drought stress (75% reduced irrigation), ANE alone 2 ml/kg, CAR alone 0.3 g/kg): 2.32
decrease in LEF (corn (cv. H140354); stated as decrease vs stressed control, CAR at 0.3 g/kg, drought stress): 4.3%
non-photochemical quenching (NPQt), Mean ([3]; cold stress 13/8° C. day/night for 4 days, Carnitine alone 0.30 g (Table 20 solutions)): 0.40
non-photochemical quenching (NPQt), Difference (%) ([3]; compared to stressed control, cold stress, Carnitine alone 0.30 g): −4.8%
shoot weight (Shoot Fresh Weight), Mean ([4]; Carnitine alone 0.30 g): 1.69
non-photochemical quenching (NPQt), Mean ([4]; Carnitine alone 0.30 g (Table 20 solutions)): 0.76
non-photochemical quenching (NPQt), Difference (%) [4, 11]: −12.4%
shoot weight, Difference (%) [4, 11]: 3.0%
